Test results taken from patent publication US20110105509A1 (Wyeth, LLC, priority 2009, published 2011).

biological target: T1, CRTH2 (Homo sapiens, UniProt Q9Y5Y4); assay: FRET based competitive immunoassay (cAMP) in CRTH2 expressing CHO cells; format: cell-based; settings: CRTH2 expressing CHO cells incubated with forskolin and PGD2; Eu3+ cryptate-labeled anti-cAMP and d2-labeled cAMP
T1 construct: expressed in transfected cells; host or cells: CHO cells
T1 sequence (Q9Y5Y4 1-395): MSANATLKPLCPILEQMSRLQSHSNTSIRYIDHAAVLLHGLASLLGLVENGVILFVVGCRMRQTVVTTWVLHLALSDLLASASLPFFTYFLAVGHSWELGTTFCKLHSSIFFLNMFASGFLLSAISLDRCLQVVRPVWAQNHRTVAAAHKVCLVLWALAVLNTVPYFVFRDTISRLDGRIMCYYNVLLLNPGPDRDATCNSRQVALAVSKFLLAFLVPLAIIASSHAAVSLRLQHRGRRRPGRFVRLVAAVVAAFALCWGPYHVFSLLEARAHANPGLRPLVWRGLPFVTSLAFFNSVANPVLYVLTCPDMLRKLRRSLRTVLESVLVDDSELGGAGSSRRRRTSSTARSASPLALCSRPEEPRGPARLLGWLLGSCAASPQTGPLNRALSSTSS
Protocol: FRET Assay: To evaluate potency compounds were tested in a FRET based competitive immunoassay in which CRTH2 expressing CHO cells were incubated in the presence of forskolin and PGD2 along with Eu3+ cryptate-labeled anti-cAMP and d2-labeled cAMP.

SMILES | IC50 [nM]
Cc1c(-c2nn(Cc3c(F)cccc3F)c(=O)c3ccccc23)c2ccccc2n1CC(=O)O [Example 172, 2-(3-(3-(2,6-difluorobenzyl)-4-oxo-3,4-dihydrophthalazin-1-yl)-2-methyl-1H-indol-1-yl)acetic acid] | 40
Cc1ccc(Cn2nc(-c3c(C)n(CC(=O)O)c4ccccc34)c3ccccc3c2=O)cc1 [Example 173, 2-(2-methyl-3-(3-(4-methylbenzyl)-4-oxo-3,4-dihydrophthalazin-1-yl)-1H-indol-1-yl)acetic acid] | 76
Cc1c(-c2nn(C)c(=O)c3ccccc23)c2ccccc2n1CC(=O)O [Example 174, 2-(2-methyl-3-(3-methyl-4-oxo-3,4-dihydrophthalazin-1-yl)-1H-indol-1-yl)-acetic acid] | 980
Cc1c(-c2nn(C3CCCC3)c(=O)c3ccccc23)c2ccccc2n1CC(=O)O [Example 179, 2-(3-(3-cyclopentyl-4-oxo-3,4-dihydrophthalazin-1-yl)-2-methyl-1H-indol-1-yl)-acetic acid] | > 1000
Cc1c(-c2ccc(=O)n(Cc3ccccc3)n2)c2ccccc2n1CC(=O)O [Example 180, 2-(3-(1-benzyl-6-oxo-1,6-dihydropyridazin-3-yl)-2-methyl-1H-indol-1-yl)-acetic acid] | 96
Cc1c(-c2ccc(=O)n(C)n2)c2ccccc2n1CC(=O)O [Example 183, 2-(2-methyl-3-(1-methyl-6-oxo-1,6-dihydropyridazin-3-yl)-1H-indol-1-yl)-acetic acid] | 4990
Cc1c(-c2ccc(=O)n(CC3CC3)n2)c2ccccc2n1CC(=O)O [Example 184, 2-(3-(1-(cyclopropylmethyl)-6-oxo-1,6-dihydropyridazin-3-yl)-2-methyl-1H-indol-1-yl)acetic acid] | 62
Cc1c(-c2ccc(=O)n(CC(F)(F)F)n2)c2ccccc2n1CC(=O)O [Example 185, 2-(2-methyl-3-(6-oxo-1-(2,2,2-trifluoroethyl)-1,6-dihydropyridazin-3-yl)-1H-indol-1-yl)acetic acid] | > 1000

The remaining compounds from weak to strong by IC50, led by results:

IC50 [nM] | SMILES
1720 | CCn1nc(-c2c(C)n(CC(=O)O)c3ccccc23)ccc1=O [Example 182, 2-(3-(1-ethyl-6-oxo-1,6-dihydropyridazin-3-yl)-2-methyl-1H-indol-1-yl)-acetic acid]
920 | Cc1c(-c2ccc(=O)n(C(C)C)n2)c2ccccc2n1CC(=O)O [Example 181, 2-(3-(1-isopropyl-6-oxo-1,6-dihydropyridazin-3-yl)-2-methyl-1H-indol-1-yl)-acetic acid]
296 | Cc1c(-c2nn(Cc3ccc(C(F)(F)F)cc3)c(=O)c3ccccc23)c2ccccc2n1CC(=O)O [Example 171, 2-(2-methyl-3-(4-oxo-3-(4-(trifluoromethyl)benzyl)-3,4-dihydrophthalazin-1-yl)-1H-indol-1-yl)acetic acid]
215 | Cc1c(-c2nn(CC(F)(F)F)c(=O)c3ccccc23)c2ccccc2n1CC(=O)O [Example 177, 2-(2-Methyl-3-(4-oxo-3-(2,2,2-trifluoroethyl)-3,4-dihydrophthalazin-1-yl)-1H-indol-1-yl)-acetic acid]
215 | Cc1c(-c2nn(C3CC3)c(=O)c3ccccc23)c2ccccc2n1CC(=O)O [Example 178, 2-(3-(3-cyclopropyl-4-oxo-3,4-dihydrophthalazin-1-yl)-2-methyl-1H-indol-1-yl)-acetic acid]
175 | CCn1nc(-c2c(C)n(CC(=O)O)c3ccccc23)c2ccccc2c1=O [Example 175, 2-(3-(3-ethyl-4-oxo-3,4-dihydrophthalazin-1-yl)-2-methyl-1H-indol-1-yl)-acetic acid]
123 | Cc1c(-c2nn(CC3CC3)c(=O)c3ccccc23)c2ccccc2n1CC(=O)O [Example 176, 2-(3-(3-(cyclopropylmethyl)-4-oxo-3,4-dihydrophthalazin-1-yl)-2-methyl-1H-indol-1-yl)acetic acid]
